Bridge positions count the residues as written; N and C are the ends. Square brackets hold non-standard residues; d marks the D form. Ends that are not written are not given here. Peptide text beside a SMILES is read from it. Dab = NCC[C@H](N)C(=O)O
What was measured:
μ-receptor = target: T1, μ-receptor (Rattus norvegicus, UniProt P33535); assay: (3H)-DAMGO displacement receptor assay; type: binding; conditions: LIGAND program; for IC50: displacement of (3H)-DAMGO specific binding, radioligand about 24 x 10^-10 M
T1 construct: from tissue; host or cells: rat brain (homogenate / synaptic plasma membranes, whole brain without cerebellum)
Experimental: (§1) In the experiments noted in FIGS. 3 and 4 and in Table 1 (^3 H)-(D-Ala^2,MePhe^4,Gly-ol^5)-enkephalin (DAGO or DAMGO) and (^3 H)-(D-Ala^2,D-Leu^5)-enkephalin (DADL) purchased from Amersham (Buckinghamshire, England) were used as radioligands in a binding assay performed as in Reg.
(§2) The peptides were employed for both receptor tests and bioassays on electrically stimulated guinea pig ileum strips (GPI-tests). The receptor assays were performed in the same manner as above with DAMGO as a radioligand to the μ-receptor. In the assays (^3 H)-DAMGO specific binding was displaced by the different tested substances (10^-5 M to 10^-10 M). […] Ups. […] The magnitude of activity in relation to a standard compound, normorphine was recorded.

[1] = target: T2, μ-receptor ((3H)-DAGO binding site) (Rattus norvegicus, UniProt P33535); assay: (3H)-DAGO binding assay, rat brain homogenates; conditions: duplicate determination, one site model, EBDA/LIGAND
T2 construct: from tissue; host or cells: rat brain (homogenate / synaptic plasma membranes, whole brain without cerebellum)
Excerpt: as §1
(§3) In the publication β-Casomorphins and Related Peptides Ed.

[2] = target: T3, δ-receptor ((3H)-DADL binding site) (Rattus norvegicus, UniProt P33533); assay: (3H)-DADL binding assay, rat brain homogenates; conditions: duplicate determination, one site model, EBDA/LIGAND
T3 construct: from tissue; host or cells: rat brain homogenate
Excerpt: as §1, §3

[3] = test system: electrically stimulated guinea pig ileum strips; conditions: relative to standard compound normorphine = 1
Experimental: as §2

T1 sequence (P33535 whole entry): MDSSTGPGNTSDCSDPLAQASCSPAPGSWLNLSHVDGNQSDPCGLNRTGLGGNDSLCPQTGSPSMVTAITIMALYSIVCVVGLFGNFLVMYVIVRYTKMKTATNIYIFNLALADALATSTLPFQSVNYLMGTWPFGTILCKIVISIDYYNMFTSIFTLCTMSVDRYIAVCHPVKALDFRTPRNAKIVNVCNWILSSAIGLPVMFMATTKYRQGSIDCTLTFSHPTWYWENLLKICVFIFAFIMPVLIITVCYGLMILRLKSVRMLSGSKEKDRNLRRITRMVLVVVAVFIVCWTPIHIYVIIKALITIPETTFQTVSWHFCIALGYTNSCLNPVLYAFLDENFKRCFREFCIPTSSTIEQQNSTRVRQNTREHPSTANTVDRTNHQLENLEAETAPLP
T2 sequence (P33535 whole entry): as above
T3 sequence (P33533 whole entry): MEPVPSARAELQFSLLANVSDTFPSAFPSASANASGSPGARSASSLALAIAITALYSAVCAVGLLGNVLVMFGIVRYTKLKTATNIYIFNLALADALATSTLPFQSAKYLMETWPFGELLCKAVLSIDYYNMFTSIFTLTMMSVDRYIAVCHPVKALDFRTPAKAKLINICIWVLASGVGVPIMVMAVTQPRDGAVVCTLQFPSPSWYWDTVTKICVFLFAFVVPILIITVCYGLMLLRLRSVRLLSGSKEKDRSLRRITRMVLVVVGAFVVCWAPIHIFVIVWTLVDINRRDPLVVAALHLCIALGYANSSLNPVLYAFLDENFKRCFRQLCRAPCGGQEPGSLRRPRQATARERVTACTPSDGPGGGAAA

Compound	IC50 (μ-receptor) [nM]	GPI-test relative activity normorphine = 1 [3]	further results
CC(C)C[C@@H]1NC(=O)[C@H](Cc2ccccc2)NC(=O)[C@@H](NC(=O)[C@@H](N)Cc2ccc(O)cc2)CSSC[C@@H](C(=O)O)NC1=O (H-YCFLC-OH; disulfide 2-5)	0.24		
CC(C)C[C@@H]1NC(=O)[C@H](Cc2ccccc2)NC(=O)[C@@H](NC(=O)[C@@H](N)Cc2ccc(O)cc2)CCCCNC(=O)[C@H](CCC(=O)O)NC1=O (H-YKFLE; lactam 2-C)	0.055		
CC(C)C[C@@H]1NC(=O)[C@H](Cc2ccccc2)NC(=O)[C@@H](NC(=O)[C@@H](N)Cc2ccc(O)cc2)CCNC(=O)[C@H](CCC(=O)O)NC1=O (H-Y[Dab]FLE; lactam 2-C (inferred); N-terminus assumed)			Bmax (binding capacity) (μ-receptor; (3H)-DAMGO binding): 18.6 pmol
CC(C)C[C@H](NC(=O)[C@H](CC(C)C)NC(=O)CNC(=O)[C@@H](N)Cc1ccc(O)cc1)C(=O)O [Tyr--Gly--Leu--Leu, Tyr-Gly-Leu-Leu] (H-YGLL-OH)			Ki [1]: 32 µM; Ki [2]: 24 µM
CC(C)C[C@H](NC(=O)[C@H](Cc1ccccc1)NC(=O)[C@@H](C)NC(=O)[C@@H](N)Cc1ccc(O)cc1)C(=O)N[C@@H](CCC(=O)O)C(=O)O [Tyr-D-Ala-Phe-Leu-Glu] (H-Y[dA]FLE-OH)	0.048	0.01	
CC(C)C[C@H](NC(=O)[C@H](Cc1ccccc1)NC(=O)[C@@H](C)NC(=O)[C@@H](N)Cc1ccc(O)cc1)C(N)=O [Tyr-D-Ala-Phe-Leu-NH2, reference compound] (H-Y[dA]FL-NH2)	0.1	0.3	
CSCC[C@H](NC(=O)[C@H](Cc1ccccc1)NC(=O)[C@@H](C)NC(=O)[C@@H](N)Cc1ccc(O)cc1)C(N)=O [Tyr-D-Ala-Phe-Met-NH2, reference compound] (H-Y[dA]FM-NH2)	0.15	0.5	
YPFLE [Tyr-Pro-Phe-Leu-Glu]	0.024	0.01	
YPFVE [Tyr--Pro--Phe--Val--Glu, Tyr-Pro-Phe-Val-Glu, reference compound]			Ki [1]: 8.9 µM
YSFLE-NH2 [Tyr-Ser-Phe-Leu-Glu-NH2]	2.6		
